Columns and labels:
Assay type in all cases: in vivo, rat
ceramide = assay: Trachea ceramide immunohistochemistry, MPS VI rats; settings: 37 weeks of age
Description: Tracheas from 37-week-old normal, untreated MPS VI and treated MPS VI rats were fixed, embedded, sectioned, and prepared as described above. Sections were incubated overnight with primary mouse monoclonal anti-ceramide antibody (MID 15B4, Alexis Corporation) and visualization was accomplished using a fluorescent secondary antibody, donkey anti-goat IgG-Cy-3 (711-165-152, Jackson Laboratory). Slides were visualized and photographed with a confocal laser-scanning microscope (Carl Zeiss 510 Meta).

TNF-α = TNF-α immunostaining of articular cartilage, MPS VI rats; settings: MPS VI rats treated 8 months, vs untreated
Description: (§1) Femora from 37-week-old normal, untreated MPS VI and treated MPS VI rats were fixed, embedded, sectioned, and stained with toluidine blue and H & E. Immunohistochemical studies were performed as well. For immunohistochemistry, sections were fixed with 4% paraformaldehyde/PBS, permeabilized with 0.5% Triton-X-100, blocked, and incubated overnight at 4° C. with primary rabbit polyclonal anti-mouse collagen type IIA1 (rabbit polyclonal […], Santa Cruz Biotechnology) and TNF-α antibody (goat polyclonal sc-1348, Santa Cruz Biotechnology). After several rinses with PBS, visualization was accomplished using a fluorescent secondary antibody, donkey anti-goat IgG-Cy-3 (711-165-152, Jackson Laboratory). Nuclei were stained with 1 mg/ml bis-benzimide Hoechst dye (Sigma-Aldrich) for 10 min, rinsed, and sections were mounted with an anti-bleaching mounting media. Slides were visualized and photographed with a confocal laser-scanning microscope (Carl Zeiss 510 Meta).

MPS VI rats [1] = assay: Gait (motility) analysis from paw prints, MPS VI rats
Description: The fore and hind paws of treated and control animals were stained with two different colors using non-toxic dye. The rats were trained to walk through a tunnel for two consecutive days, leaving their paw prints on blotting paper. On the third day several parameters were measured; distance between the left and right front paws in the longitudinal direction, the angle that was formed, and the distance between the front and hind right paws. For statistical analysis, group differences were assessed using multivariate analyses of variance (MANOVAs), followed by post hoc Bonferroni adjustments for all time points tested.

TNF-α and RANKL = assay: Serum immunoassays of TNF-α and RANKL in treated MPS VI rats; settings: MPS VI rats treated 8 months i.v., end of study (37 weeks), vs untreated MPS VI
Description: Naglazyme® (recombinant human N-acetylgalactosamine-4-sulfatase) was obtained from the BioMarin Pharmaceutical Inc., and CNTO1081 was from Centocor Ortho Biotech Inc. Twenty one-day-old (pre-symptomatic) MPS VI rats were divided into two groups (n=8/group), and subjected to either ERT or combined ERT/anti-TNF-α therapy. Animals receiving ERT alone were injected i.v. (tail vein) weekly with 1 mg/kg of Naglazyme®. Those receiving combined therapy also were injected i.v. with 3 mg/kg of CNTO10181 twice per week (every third day). Treatment was carried out for a total of 32 weeks. Serum was collected every 2 weeks for TNF-α and RANKL analysis (see infra). For each group, the treated animals were sacrificed 2 weeks after the last injection (37 weeks of age). Age-matched normal and untreated MPS VI rats were used as controls throughout the study.
Serum TNF-α and RANKL in age-matched normal, untreated and treated MPS VI rats were assessed by immunoassays using rat ultrasensitive Biosource Elisa kits (Invitrogen and ALPCO Diagnostics) according to the manufacturers' protocols. All assays were performed in triplicate.
Twenty one-day-old MPS VI rats were treated by either ERT (1 mg/kg once per week), or by a combined protocol of ERT and anti-TNF-α therapy (3 mg/kg, twice per week). Both were administered intravenously (tail vein). […]

MPS VI rats [2] = assay: Femora and tibia length by microCT / caliper, MPS VI rats; settings: 37 weeks of age, vs untreated MPS VI
Description: Three-dimensional images of the 37-week-old femora from age-matched normal, untreated and treated MPS VI rats were obtained using the eXplore Locus SP PreClinical Specimen microCT system (GE Healthcare; London, Ontario, Canada). Scans were performed at a voxel size of 14.4 μm. The scan protocol consisted of 3600 image acquisitions over a five hour scan (acquisition parameters: 80 kVp, 80 uA, 3 second exposure time [˜690], 0.010″ aluminum beam filter). A calibration phantom containing air, water, and hydroxyapatite (SB3: Gamex RMI, Middleton, Wis., USA) was included in all scans to adjust for the variability in X-ray attenuation inherent to independent scan sessions.
Limb and trachea measurements were taken at the end of the study (37 weeks of age). The length of each femur was measured from the microCT images using the Microview software. The greater trochanter was used as the proximal margin of the femur, whereas the extent of the distal condyles was considered the distal margin. Thus, the length of each femur was computed roughly along the vertical axis of the bone. For validation, the physical femora and tibia lengths, as well as the width of the tracheas, was measured with a digital caliper. The mean of the two treatment groups (ERT and combined ERT/CNTO1081) were compared using standard student t test analysis.

MPS VI rats [3] = assay: Synovium / knee joint histology, MPS VI rats; settings: MPS VI rats treated 8 months, knee cross sections
Description: as §1
FIG. 1A summarizes the serum levels of TNF-α and RANKL at the end of the study. Both inflammatory markers were highly elevated in untreated MPS VI rats as compared to normal animals, and both treatment protocols led to significant reductions. […] The synovial membranes (*) were hyperplastic in untreated MPS VI rats, leading to the formation of synovial villi (SV). […]

## recombinant human N-acetylgalactosamine-4-sulfatase [ERT]
ceramide
  ceramide staining in tracheal epithelial cells: strong ceramide staining
TNF-α
  TNF-α immunostaining in the articular cartilage: modestly reduced
MPS VI rats [1]; untreated MPS VI 2.8 cm
  distance for the front paw per step: 4.2 cm
MPS VI rats [1]; untreated MPS VI 4.9 cm
  distance the animals moved their rear paws: not changed
MPS VI rats [1]; untreated MPS VI 60°
  angle of the hind paw movement: 45 °
TNF-α and RANKL
  serum RANKL level: significantly reduced
  serum TNF-α level: significantly reduced
MPS VI rats [2]
  increase in femora length: No improvements were observed
  increase in tibia length: No improvement was observed
MPS VI rats [3]
  synovial inflammation and formation of villi: did not reduce

Source: patent US9155784B2, “Anti-TNF-α therapy for the mucopolysaccharidoses and other lysosomal disorders” (Icahn School of Medicine at Mount Sinai, priority 2011, dated 2015)
